The values below come from patent publication US8901164B2, “Amphipathic and other double-sided alpha-helix mimetics based on a 1,2-diphenylacetylene scaffold” (University of Maryland, Baltimore, priority 2013, dated 2014).

The test concerns the target Mcl-1-Bak-BH3 complex (Homo sapiens, UniProt Q07820). Briefly: Antagonism of the Mcl-1-Bak-BH3 complex (preliminary studies). Format: binding. As to conditions: read-out: IC50 for antagonizing the Mcl-1-Bak-BH3 complex.

What is called IC50 is the concentration needed to halve the response being measured.

Chain of Mcl-1-Bak-BH3 complex (Q07820 172-327 limits assumed, one chain of several): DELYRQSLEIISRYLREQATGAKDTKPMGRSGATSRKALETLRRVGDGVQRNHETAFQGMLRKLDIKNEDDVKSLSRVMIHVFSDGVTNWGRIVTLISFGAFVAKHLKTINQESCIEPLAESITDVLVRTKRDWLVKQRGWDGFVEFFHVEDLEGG

Consider `CC(C)COc1ccc(C(=O)NCCN)c(C#Cc2cc(OCc3ccccc3)ccc2NC(=O)C(=O)O)c1OCC(C)C` [Compound 14, 2-((2-((6-((2-Aminoethyl)carbamoyl)-2,3-diisobutoxyphenyl)ethynyl)-4-(benzyloxy)phenyl)amino)-2-oxoacetic acid], for which the IC50 was 3.24 ± 0.48 µM.
